The source of these data is BindingDB's records for doi:10.1111/cbdd.12744 (Southern Research Institute, 2016).

pIC50: −log10 of the molar value.

What is called pIC50 is the negative decadic logarithm of the IC50, by convention in mol/L.

In this assay the target is T1, Kinesin-like protein KIF11 [15-368] (Homo sapiens, UniProt P52732).
T1 construct: 15-368
T1 sequence (P52732 whole entry): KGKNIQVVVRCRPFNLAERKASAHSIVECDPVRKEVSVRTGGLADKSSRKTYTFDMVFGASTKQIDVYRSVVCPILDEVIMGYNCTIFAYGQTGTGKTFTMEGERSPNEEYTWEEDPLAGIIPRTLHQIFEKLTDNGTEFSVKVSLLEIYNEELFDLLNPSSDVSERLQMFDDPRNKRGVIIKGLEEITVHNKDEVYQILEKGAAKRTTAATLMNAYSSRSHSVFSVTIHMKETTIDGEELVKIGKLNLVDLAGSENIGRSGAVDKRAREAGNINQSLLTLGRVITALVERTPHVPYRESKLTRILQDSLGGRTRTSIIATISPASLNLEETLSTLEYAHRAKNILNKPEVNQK
The experiment in a line: ADP Hunter Plus Assay. To be noted: pH 7; 25 °C. The procedure: Compounds were first tested in triplicates at 100 uM; hit compounds were further tested with a 10-point twofold serial dilution to confirm their activity and determine their IC50 values. S-Trityl-L-cysteine (STLC), a selective Eg5 inhibitor(J. Biol. Chem. 2006, 281:17559-17569; Mol. Cancer Ther. 2004, 3:1079-1090), was used as the control compound. Specifically, 20 uL of 15 mM PIPES (pH 7.0) containing 1 mM MgCl2, 50 nM MT, 20 uM paclitaxel, 200 uM ATP, 5% DMSO, 60 nM Eg5 proteins, and 1:2 serial dilutions of each individual compound starting from 1000 uM were added to each well of a 96-well plate. The plate was incubated at room temperature for 0.5 h, and then, the ADP Hunter Plus reagents were added. The plate was further incubated for 0.5 h and then read for fluorescence (ex.530/em.590) on Synergy 4 (BioTek, Winooski, VT, USA).
`O=C1CC(c2ccccc2)c2c(n3ncnc3[nH]c2=O)N1` (stereo not drawn) [SRI35566]: the negative-log IC50 (pIC50) is 4.19.

`Cc1ccc(C2C(C#N)=C(N)Nc3ncnn32)cc1` (stereo not drawn) [SRI35564]: the pIC50 was 3.93.

For the compound `FC(F)(F)c1ccc(Nc2ncnc3[nH]ncc23)cc1` [SRI35565], the pIC50 was 4.10.
